Data on one molecule can be found in paper PMC12435401 (Chemistry & Biodiversity, 2025).

The target in this test is acetylcholinesterase (AChE) (Electrophorus electricus, UniProt O42275). The experiment in a line: Ellman's assay with AChE isolated from Electrophorus electricus. The test is classed as biochemical. Background: DTNB colorimetry detects thiols as they appear.
acetylcholinesterase (AChE), sequence (O42275 24-633): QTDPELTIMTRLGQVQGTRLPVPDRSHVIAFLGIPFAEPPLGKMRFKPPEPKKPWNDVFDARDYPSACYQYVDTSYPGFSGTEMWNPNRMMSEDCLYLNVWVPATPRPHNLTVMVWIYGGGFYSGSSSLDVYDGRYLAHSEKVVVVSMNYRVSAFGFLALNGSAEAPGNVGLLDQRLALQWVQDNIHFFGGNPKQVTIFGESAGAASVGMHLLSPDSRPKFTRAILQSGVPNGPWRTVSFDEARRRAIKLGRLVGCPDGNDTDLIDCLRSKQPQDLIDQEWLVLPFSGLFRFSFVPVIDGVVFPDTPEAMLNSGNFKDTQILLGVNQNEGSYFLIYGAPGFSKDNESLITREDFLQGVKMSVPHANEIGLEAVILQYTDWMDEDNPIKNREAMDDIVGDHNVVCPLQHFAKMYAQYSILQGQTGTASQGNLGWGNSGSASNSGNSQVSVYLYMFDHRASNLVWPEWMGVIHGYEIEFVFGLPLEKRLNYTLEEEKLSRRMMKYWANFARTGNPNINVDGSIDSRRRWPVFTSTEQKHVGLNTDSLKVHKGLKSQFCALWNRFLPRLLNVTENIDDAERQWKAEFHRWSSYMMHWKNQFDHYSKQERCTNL

As usually defined, the IC50 is the concentration that inhibits the measured activity by half. A low value points to inhibition by little substance. Molecule `C[C@@H]1CC(=O)O[C@H]2C[C@@]3(C)[C@@H]4CC[C@H]5C(C)(C)C(=O)CC[C@@]56C[C@@]46CC[C@]3(C)[C@@H]12` [compound 6] came in with an IC50 of 53.5 ± 2.53 µM.
